Reference: ChEMBL document CHEMBL3813657, “Bacterial Peptide deformylase inhibition of cyano substituted biaryl analogs: Synthesis, in vitro biological evaluation, molecular docking study and in silico ADME prediction” (Bioorg Med Chem, 2016)
Values after ≈ are worked out from the molar mass of the structure shown.

Columns and labels:
Escherichia coli = assay: Antibacterial activity against Escherichia coli NCIM-2256 after 24 hrs by two fold serial dilution method; type: functional; settings: NCIM-2256, 24 h
Bacillus subtilis = assay: Antibacterial activity against Bacillus subtilis NCIM-2063 after 24 hrs by two fold serial dilution method; type: functional; settings: NCIM-2063, 24 h
Peptide deformylase [1] = target: T1, Peptide deformylase (Escherichia coli, UniProt Q9JN24); assay: Inhibition of NiCl2 stabilized Escherichia coli NCIM-2931 peptide deformylase using N-formyl-Met-Ala as substrate incubated for 30 mins by spectrophotometric method
T1 sequence (Q9JN24 whole entry): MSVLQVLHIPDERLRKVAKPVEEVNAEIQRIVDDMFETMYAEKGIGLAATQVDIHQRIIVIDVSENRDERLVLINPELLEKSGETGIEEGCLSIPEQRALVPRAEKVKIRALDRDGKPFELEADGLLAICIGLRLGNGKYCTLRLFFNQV

Peptide deformylase [2] = target: T1, Peptide deformylase; assay: Inhibition of Escherichia coli peptide deformylase

SMILES: N#Cc1ccccc1-c1ccc(CNc2cccc(C(F)(F)F)c2)cc1
- MIC (Escherichia coli): 42.5 µg/mL (≈ 121 µM)
- MIC (Bacillus subtilis): 25.8 µg/mL (≈ 73.3 µM)
- IC50 (Peptide deformylase [1]): 20.9 µM

SMILES: N#Cc1ccccc1-c1ccc(CNc2ccc(O)cc2)cc1
- MIC (Escherichia coli): 33.6 µg/mL (≈ 112 µM)
- MIC (Bacillus subtilis): 28.3 µg/mL (≈ 94.3 µM)
- IC50 (Peptide deformylase [1]): 34.6 µM

SMILES: CCCC1=NC2C(C)=CC(C)=NN2C1Cc1ccc(-c2ccccc2C(=O)O)cc1 (configuration not stated)
- IC50 (Peptide deformylase [2]): 22.8 µM

SMILES: N#Cc1ccccc1-c1ccc(CNn2cnnc2)cc1
- MIC (Escherichia coli): 36.5 µg/mL (≈ 133 µM)
- MIC (Bacillus subtilis): 23.8 µg/mL (≈ 86.3 µM)
- IC50 (Peptide deformylase [1]): 50.7 µM

SMILES: N#Cc1ccccc1-c1ccc(CNc2ccc(C(=O)O)cc2)cc1
- MIC (Escherichia coli): 32.6 µg/mL (≈ 99.2 µM)
- MIC (Bacillus subtilis): 26.8 µg/mL (≈ 81.5 µM)
- IC50 (Peptide deformylase [1]): 51.2 µM

SMILES: N#Cc1ccccc1-c1ccc(CNc2ccccc2O)cc1
- MIC (Escherichia coli): 39.6 µg/mL (≈ 132 µM)
- MIC (Bacillus subtilis): 29.3 µg/mL (≈ 97.6 µM)
- IC50 (Peptide deformylase [1]): 33 µM

SMILES: N#Cc1ccccc1-c1ccc(CNc2ccc(N3CCOCC3)c(F)c2)cc1
- MIC (Escherichia coli): 37.3 µg/mL (≈ 96.3 µM)
- MIC (Bacillus subtilis): 21.6 µg/mL (≈ 55.7 µM)
- IC50 (Peptide deformylase [1]): 42.5 µM

SMILES: O=C(O)c1cn(C2CC2)c2cc(N3CCNCC3)c(F)cc2c1=O [CIPROFLOXACIN]
- MIC (Escherichia coli): 25 µg/mL (≈ 75.4 µM)

SMILES: COc1ccc2nc(NCc3ccc(-c4ccccc4C#N)cc3)sc2c1
- MIC (Escherichia coli): 35.2 µg/mL (≈ 94.9 µM)
- MIC (Bacillus subtilis): 36.2 µg/mL (≈ 97.6 µM)
- IC50 (Peptide deformylase [1]): 27.8 µM

SMILES: N#Cc1ccccc1-c1ccc(CNc2ccccc2)cc1
- MIC (Escherichia coli): 15.8 µg/mL (≈ 55.7 µM)
- MIC (Bacillus subtilis): 11 µg/mL (≈ 38.7 µM)
- IC50 (Peptide deformylase [1]): 13.2 µM

SMILES: N#Cc1ccccc1-c1ccc(CNc2ccccc2[N+](=O)[O-])cc1
- MIC (Escherichia coli): 28.5 µg/mL (≈ 86.5 µM)
- MIC (Bacillus subtilis): 23.8 µg/mL (≈ 72.1 µM)
- IC50 (Peptide deformylase [1]): 15.7 µM

SMILES: N#Cc1ccccc1-c1ccc(CNc2ccc(C(F)(F)F)cc2)cc1
- MIC (Escherichia coli): 35.5 µg/mL (≈ 101 µM)
- MIC (Bacillus subtilis): 34.4 µg/mL (≈ 97.7 µM)
- IC50 (Peptide deformylase [1]): 33.5 µM

SMILES: CCCc1nc2ccc(Cl)cc2n1Cc1ccc(-c2ccccc2-c2nnn[nH]2)cc1
- IC50 (Peptide deformylase [2]): 3.9 µM

SMILES: N#Cc1ccccc1-c1ccc(CNc2cccc([N+](=O)[O-])c2)cc1
- MIC (Escherichia coli): 40.9 µg/mL (≈ 124 µM)
- MIC (Bacillus subtilis): 29.3 µg/mL (≈ 89.1 µM)
- IC50 (Peptide deformylase [1]): 25 µM

SMILES: N#Cc1ccccc1-c1ccc(CNc2cnccn2)cc1
- MIC (Escherichia coli): 16.9 µg/mL (≈ 59.1 µM)
- MIC (Bacillus subtilis): 7.66 µg/mL (≈ 26.8 µM)
- IC50 (Peptide deformylase [1]): 19.2 µM

SMILES: N#Cc1ccccc1-c1ccc(CNc2ccc(Cl)cc2[N+](=O)[O-])cc1
- MIC (Escherichia coli): 45.6 µg/mL (≈ 125 µM)
- MIC (Bacillus subtilis): 27.2 µg/mL (≈ 74.7 µM)
- IC50 (Peptide deformylase [1]): 28.3 µM
